Test [1] relates to type I HLA (HLA-A, B, C). Description: Type I HLA on surface of tumor cells of T008 PDX mice, flow cytometry MFI. It is filed as in vivo, mouse. Conditions: 60 mg/kg/day i.p. q.d. 30 days, vs PBS control. The procedure:
(§1) PDX mouse models derived from tissue T008 and tissue T018 were established according to the method of example 3. The model animals were grouped according to the following Table 7 in which mice were treated with hydroxychloroquine alone. Hydroxychloroquine used in the experiment was purchased from MCE (Cat. No.: HY-W031727).
(§2) Mice were sacrificed 30 days after treatment, and tumor tissues were taken out and digested into a single-cell suspension with dispase. After staining with a general HLA-A, B, C flow cytometric antibody (Biolegend, PE-anti-human HLA-A, B, C Antibody Cat. NO. 311406), the phenotypes and fluorescence intensity (MFI) were measured by flow cytometry, and the MFI values of different groups of HLA-type I positive cells were counted and compared.
On the technique in general: Flow cytometry measures light scatter and fluorescence of single cells or particles in a stream.

In test [2] the test system is type I HLA (HLA-A, B, C). Description: Type I HLA on surface of tumor cells of T018 PDX mice, flow cytometry MFI. It is filed as in vivo, mouse. To be noted: 60 mg/kg/day i.p. q.d. 30 days, vs PBS control. The procedure:
as §1, §2

The next test deals with HLAs. Description: HLA expression (positive rate) of tumor cells treated with hydroxychloroquine. It is filed as cell-based, human. To be noted: compound group vs control group.
In test [3] the test system is primary tumor cells such as pancreatic tumor cells. Description: Killing effect of TILs on primary tumor cells treated with hydroxychloroquine. It is filed as cell-based, human. The procedure:
In a specific embodiment, TILs are obtained from tumor samples of pancreatic cancer patients with reference to the method disclosed in CN110785486A (which is incorporated herein by reference in its entirety). Primary tumor cells such as pancreatic tumor cells are treated with the TILs alone (control group) or in combination with a compound of Formula (I) (e.g., hydroxychloroquine) (compound group). The cells of the compound group are treated with different concentrations of the compound of Formula (I) (e.g., hydroxychloroquine) for more than 12 hours (e.g., 24 hours). Under different effect-to-target ratios were the killing effects of TILs on target cells in the control group and the compound group detected.

On to `CCN(CCO)CCCC(C)Nc1ccnc2cc(Cl)ccc12` (centres unmarked) [hydroxychloroquine], for which the “expression levels of type I HLA on the surface of tumor cells” value with type I HLA (HLA-A, B, C) [1] is given as “significantly increased”; in the test with type I HLA (HLA-A, B, C) [2], “significantly increased”. In addition, the “positive rate of the cells (HLA expression)” value in the test on HLAs was “significantly higher”. In test [3] (compound group vs control group (TILs alone)), the “concentration of hydroxychloroquine at which the effect on TIL killing is more clear” value is “above 20 μM”. Also, in test [3] (primary tumor cells treated with hydroxychloroquine for more than 12 hours (e.g., 24 hours), different effect-to-target ratios, vs TILs alone), the “killing effects of TILs on target cells” value was “more effectively killed by TILs”.

The values above are taken from US20240238271A1, “PHARMACEUTICAL COMPOSITION FOR ENHANCING CELL KILLING, AND USE THEREOF” (SHANGHAI JUNCELL THERAPEUTICS CO., LTD., priority 2020, published 2024).
